# Data published in patent US9023789B2, “Amylin analogs and pharmaceutical compositions thereof” (Novo Nordisk A/S, priority 2012, dated 2015).
# Read-outs that look alike come from different tables or passages of the source. Numbered stars: 1 amine (or outer) side, 2 acyl side, 3 side chain; on linkers, the order of the positions; unused ones are H or OH. Bridge positions count the residues as written; N and C are the ends. Side chains are listed from the residue outwards. Peptide text beside a SMILES is read from it. * marks the point of attachment. C20 diacid = O=C(O)CCCCCCCCCCCCCCCCCCC(=O)*; γGlu = O=C(O)[C@H](CCC(=O)[*:2])N[*:1]; AEEA = NCCOCCOCC(=O)O
# Tests used:
# [1] = molecular target: T1, human calcitonin (a) receptor in BHK570 cells (Homo sapiens, UniProt P30988); experiment: ASSAY (II)a functional assay, human calcitonin receptor (CRE luciferase); type: cell-based; settings: read-out: hCTR funct. EC50
# T1 construct: expressed in transfected cells
# T1 sequence (P30988 25-474): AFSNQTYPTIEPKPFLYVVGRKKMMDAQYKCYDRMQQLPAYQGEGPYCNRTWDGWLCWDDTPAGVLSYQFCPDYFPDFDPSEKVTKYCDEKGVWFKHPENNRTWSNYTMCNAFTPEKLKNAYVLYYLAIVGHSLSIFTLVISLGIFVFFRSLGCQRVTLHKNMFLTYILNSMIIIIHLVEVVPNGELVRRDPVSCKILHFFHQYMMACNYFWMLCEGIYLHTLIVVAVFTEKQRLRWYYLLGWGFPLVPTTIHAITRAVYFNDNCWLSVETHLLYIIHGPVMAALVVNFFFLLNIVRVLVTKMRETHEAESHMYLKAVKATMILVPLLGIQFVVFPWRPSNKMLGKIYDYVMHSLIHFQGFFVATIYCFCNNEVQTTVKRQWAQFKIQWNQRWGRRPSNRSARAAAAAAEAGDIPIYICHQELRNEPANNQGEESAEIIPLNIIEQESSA
# Procedure, shortened: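 Receptor activation is measured as cAMP-driven CRE-luciferase expression in BHK cells expressing the calcitonin receptor, with RAMP-3 co-expressed to form the amylin 3(a) receptor. Cells are exposed to compound for 3 hours at 37° C, and luciferase is then quantified by luminescence.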
# [2] = molecular target: T2, human calcitonin receptor (Homo sapiens, UniProt P30988); experiment: ASSAY (VII) binding to the human calcitonin receptor (SPA, 125I-Calcitonin); settings: read-out: hCTR bind IC50;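 note: cell membranes (35 ng/µL) combined with SPA beads in 40 µL of pH 7.4 Hepes buffer, 384-well format, signal counted on a TopCounter instrument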
# T2 construct: expressed in transfected cells
# T2 sequence (P30988 25-474): T1 sequence (P30988 25-474)
# rat calcitonin receptor = molecular target: T3, rat calcitonin receptor (Rattus norvegicus, UniProt P32214); experiment: ASSAY (VIII) binding to the rat calcitonin receptor; settings: Table 7, read-out: rCTR bind IC50
# T3 construct: expressed in transfected cells; host or cells: BHK tk'ts 13 (transient, FuGENE 6), membranes
# T3 sequence (P32214 25-479 isoform P32214-2 limits assumed): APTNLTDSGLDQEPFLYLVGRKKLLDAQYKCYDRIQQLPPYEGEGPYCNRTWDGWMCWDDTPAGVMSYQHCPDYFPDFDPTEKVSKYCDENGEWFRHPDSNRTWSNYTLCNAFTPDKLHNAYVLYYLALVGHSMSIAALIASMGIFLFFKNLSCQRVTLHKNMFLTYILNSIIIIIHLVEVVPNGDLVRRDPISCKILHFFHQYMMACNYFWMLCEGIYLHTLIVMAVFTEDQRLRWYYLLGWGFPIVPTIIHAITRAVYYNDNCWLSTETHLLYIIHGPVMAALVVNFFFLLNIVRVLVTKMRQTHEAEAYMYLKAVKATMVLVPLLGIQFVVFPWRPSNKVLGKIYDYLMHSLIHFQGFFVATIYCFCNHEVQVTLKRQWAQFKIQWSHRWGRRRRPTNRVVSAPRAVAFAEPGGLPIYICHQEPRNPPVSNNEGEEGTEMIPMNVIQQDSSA
# Procedure, shortened: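 Cell membranes for binding came from BHK tk′ts 13 cells harvested approximately 48 hours after transient transfection with the rat receptor.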
# [3] = ASSAY (IV) determination of solubility; type: physicochemical
# Procedure, shortened: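 Samples of polypeptide, prepared from a water stock at […] and diluted 1:1 into 100 mM buffers spanning pH 3.0 to 8.0, stood 18 hours at room temperature. Polypeptide concentration was then determined by UPLC following centrifugation.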
# [4] = molecular target: T4, rat amylin receptor (rat calcitonin receptor + rat RAMP 3) (Rattus norvegicus, UniProt P32214+Q9JJ73); experiment: ASSAY (VI) binding to the rat amylin receptor; settings: for IC50: binding to rat amylin receptor, read-out: rAmylin-R bind IC50
# T4 construct: expressed in transfected cells; host or cells: BHK tk'ts 13 (transient, FuGENE 6), membranes
# T4 sequence (P32214 25-479 isoform P32214-2 limits assumed): T3 sequence (P32214 25-479 isoform P32214-2 limits assumed)
# T4 sequence (Q9JJ73 23-147 partner): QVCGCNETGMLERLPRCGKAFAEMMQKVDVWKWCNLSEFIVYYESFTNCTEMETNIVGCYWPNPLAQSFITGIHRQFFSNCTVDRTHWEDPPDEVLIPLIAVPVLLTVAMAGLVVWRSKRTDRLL
# Procedure, shortened: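 Membranes for this rat amylin receptor binding assay came from BHK tk′ts 13 cells. The cells were transiently transfected with rat calcitonin receptor using the FuGENE® 6 reagent from Roche, as the manufacturer recommends. The cells were collected approximately 48 hours after transfection, and membranes were then prepared.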
# [5] = molecular target: T5, human amylin receptor (membranes from Amylin 3(a)/CRE-luc cells) (Homo sapiens, UniProt O60896+P30988); experiment: ASSAY (V) binding to the human amylin receptor (SPA, 125I-rat amylin); settings: for IC50: Table 4, read-out: hAmylin-R bind IC50;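 for all read-outs here: competition binding of cell membranes (35 ng/µL) mixed with SPA beads in 384-well plates at 40 µL total volume, read by scintillation counting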
# T5 construct: expressed in transfected cells
# T5 sequence (P30988 25-474): T1 sequence (P30988 25-474)
# T5 sequence (O60896 24-148 partner): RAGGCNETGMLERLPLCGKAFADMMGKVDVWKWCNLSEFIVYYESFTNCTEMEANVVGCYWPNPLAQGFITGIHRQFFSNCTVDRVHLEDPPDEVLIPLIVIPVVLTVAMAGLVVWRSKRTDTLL
# [6] = bistrispropane buffer, pH 6.5, read-out: Solubility pH 6.5 Concentration
# [7] = bistrispropane buffer, pH 7.5, read-out: Solubility pH 7.5 Concentration
# [8] = bistrispropane buffer, pH 6.0, read-out: Solubility pH 6.0 Concentration
# [9] = bistrispropane buffer, pH 7.0, read-out: Solubility pH 7.0 Concentration
# [10] = bistrispropane buffer, pH 8.0, read-out: Solubility pH 8.0 Concentration
# [11] = glycylglycine buffer, pH 3.0, read-out: Solubility pH 3.0 Concentration
# [12] = glycylglycine buffer, pH 4.0, read-out: Solubility pH 4.0 Concentration
# [13] = glycylglycine buffer, pH 5.0, read-out: Solubility pH 5.0 Concentration
# [14] = Table 7, rat binding selectivity, rCTR IC50 / rAmylin-R IC50
# [15] = Table 7a (preferred compounds), rat binding selectivity, rCTR IC50 / rAmylin-R IC50
# [16] = ratio of rCTR bind IC50 to rAmylin-R bind IC50
# [17] = Table 5, selectivity, hCTR bind IC50 / hAmylin-R bind IC50
# [18] = Table 5a, selectivity, hCTR bind IC50 / hAmylin-R bind IC50
# [19] = Table 5b, selectivity, hCTR bind IC50 / hAmylin-R bind IC50
# [20] = Table 5c, selectivity, hCTR bind IC50 / hAmylin-R bind IC50
# [21] = Table 7, human binding selectivity, included for comparison
# [22] = Table 7a (preferred compounds), human binding selectivity, included for comparison
# [23] = ratio of human calcitonin receptor binding IC50 to human amylin receptor binding IC50
EC50 [1] [nM],IC50 [2] [nM],IC50 (rat calcitonin receptor) [nM],"solubility at 18 h [3, 6] [µM]","solubility at 18 h [3, 7] [µM]","solubility at 18 h [3, 8] [µM]","solubility at 18 h [3, 9] [µM]","solubility at 18 h [3, 10] [µM]","solubility at 18 h [3, 11] [µM]","solubility at 18 h [3, 12] [µM]","solubility at 18 h [3, 13] [µM]",IC50 ([4]; Table 7) [nM],"Ratio rCT/rAmylin binding [4, 14]","Ratio rCT/rAmylin binding [4, 15]","Ratio rCT/rAmylin binding [4, 16]",IC50 [5] [nM],"Ratio hCT/hAmylin binding [5, 17]","Ratio hCT/hAmylin binding [5, 18]","Ratio hCT/hAmylin binding [5, 19]","Ratio hCT/hAmylin binding [5, 20]",Structure (SMILES),further results
0.537,29.2,492,≥ 200,69,≥ 200,182,83,≥ 200,≥ 200,≥ 200,8.07,60.9,60.9,60.9,0.426,68.6,68.6,68.6,68.6,CC[C@H](C)[C@H](NC(=O)[C@H](C)NC(=O)CNC(=O)[C@H](Cc1ccccc1)NC(=O)[C@H](CC(N)=O)NC(=O)[C@@H]1CCCN1C(=O)[C@H](CO)NC(=O)[C@H](CO)NC(=O)[C@H](Cc1c[nH]cn1)NC(=O)[C@H](CCCNC(=N)N)NC(=O)[C@H](CC(C)C)NC(=O)[C@H](Cc1ccccc1)NC(=O)[C@H](C)NC(=O)[C@H](C)NC(=O)[C@H](CC(C)C)NC(=O)[C@H](CCCNC(=N)N)NC(=O)[C@H](CCC(N)=O)NC(=O)[C@@H](NC(=O)[C@H](C)NC(=O)[C@@H]1CSSC[C@H](NC(=O)[C@H](CCCNC(=N)N)NC(=O)CNC(=O)CC[C@H](NC(=O)CCCCCCCCCCCCCCCCCCC(=O)O)C(=O)O)C(=O)N[C@@H](CC(N)=O)C(=O)N[C@@H]([C@@H](C)O)C(=O)N[C@@H](C)C(=O)N[C@@H]([C@@H](C)O)C(=O)N1)[C@@H](C)O)C(=O)N1CCC[C@H]1C(=O)N[C@@H](CO)C(=O)N[C@@H](CO)C(=O)N[C@H](C(=O)N[C@@H](CC(N)=O)C(=O)N[C@H](C(=O)NCC(=O)N[C@@H](Cc1c[nH]cn1)C(=O)N[C@@H](CC(N)=O)C(=O)N[C@H](C(=O)N[C@@H](Cc1ccc(O)cc1)C(N)=O)[C@@H](C)O)C(C)C)[C@@H](C)O [Example 101] ({C20 diacid-γGlu}-GRCNTATCATQRLAAFLRHSSPNFGAIPSSTNVGHNTY-NH2; disulfide 3-8),"Ratio hCT/hAmylin binding [5, 21]: 68.6; Ratio hCT/hAmylin binding [5, 22]: 68.6; Ratio hCT/hAmylin binding [5, 23]: 68.6"
19.2,133,352,≥ 200,157,≥ 200,≥ 200,≥ 200,≥ 200,≥ 200,≥ 200,2.8,125.7,125.7,125.7,0.833,159.3,159.3,159.3,159.3,CC[C@H](C)[C@H](NC(=O)[C@H](C)NC(=O)CNC(=O)[C@H](Cc1ccccc1)NC(=O)[C@H](CC(N)=O)NC(=O)[C@@H]1CCCN1C(=O)[C@H](CO)NC(=O)[C@H](CO)NC(=O)[C@H](Cc1c[nH]cn1)NC(=O)[C@H](CCCNC(=N)N)NC(=O)[C@H](CC(C)C)NC(=O)[C@H](Cc1ccccc1)NC(=O)[C@H](CC(N)=O)NC(=O)[C@H](C)NC(=O)[C@H](CC(C)C)NC(=O)[C@H](CCCNC(=N)N)NC(=O)[C@H](CCC(N)=O)NC(=O)[C@@H](NC(=O)[C@H](C)NC(=O)[C@@H]1CSSC[C@H](NC(=O)[C@@H](N)CCCCNC(=O)CC[C@H](NC(=O)CC[C@H](NC(=O)CCCCCCCCCCCCCCCCCCC(=O)O)C(=O)O)C(=O)O)C(=O)N[C@@H](CC(N)=O)C(=O)N[C@@H]([C@@H](C)O)C(=O)N[C@@H](C)C(=O)N[C@@H]([C@@H](C)O)C(=O)N1)[C@@H](C)O)C(=O)N1CCC[C@H]1C(=O)N[C@@H](CO)C(=O)N[C@@H](CO)C(=O)N[C@H](C(=O)N[C@@H](CC(N)=O)C(=O)N[C@H](C(=O)NCC(=O)N[C@@H](Cc1c[nH]cn1)C(=O)N[C@@H](CC(N)=O)C(=O)N[C@H](C(=O)N[C@@H](Cc1ccc(O)cc1)C(N)=O)[C@@H](C)O)C(C)C)[C@@H](C)O [Example 86] (H-K([γGlu-γGlu-C20 diacid])CNTATCATQRLANFLRHSSPNFGAIPSSTNVGHNTY-NH2; disulfide 2-7),"Ratio hCT/hAmylin binding [5, 21]: 159.3; Ratio hCT/hAmylin binding [5, 22]: 159.3; Ratio hCT/hAmylin binding [5, 23]: 159.3"
3.12,15.3,24.4,≥ 200,142,≥ 200,≥ 200,101,≥ 200,≥ 200,≥ 200,0.181,134.8,134.8,134.8,0.115,133.0,133.0,133.0,133.0,CC[C@H](C)[C@H](NC(=O)[C@H](C)NC(=O)CNC(=O)[C@H](Cc1ccccc1)NC(=O)[C@H](CC(N)=O)NC(=O)[C@@H]1CCCN1C(=O)[C@H](CO)NC(=O)[C@H](CO)NC(=O)[C@H](Cc1c[nH]cn1)NC(=O)[C@H](CCCNC(=N)N)NC(=O)[C@H](CC(C)C)NC(=O)[C@H](Cc1ccccc1)NC(=O)[C@H](CC(N)=O)NC(=O)[C@H](C)NC(=O)[C@H](CC(C)C)NC(=O)[C@H](CCCNC(=N)N)NC(=O)[C@H](CCC(N)=O)NC(=O)[C@@H](NC(=O)[C@H](C)NC(=O)[C@@H]1CSSC[C@H](NC(=O)[C@@H](N)CCCCNC(=O)COCCOCCNC(=O)CC[C@H](NC(=O)CCCCCCCCCCCCCCCCCCC(=O)O)C(=O)O)C(=O)N[C@@H](CC(N)=O)C(=O)N[C@@H]([C@@H](C)O)C(=O)N[C@@H](C)C(=O)N[C@@H]([C@@H](C)O)C(=O)N1)[C@@H](C)O)C(=O)N1CCC[C@H]1C(=O)N[C@@H](CO)C(=O)N[C@@H](CO)C(=O)N[C@H](C(=O)N1CCC[C@H]1C(=O)N[C@H](C(=O)NCC(=O)N[C@@H](CO)C(=O)N[C@@H](Cc1c[nH]cn1)C(=O)N[C@H](C(=O)N[C@@H](Cc1ccc(O)cc1)C(N)=O)[C@@H](C)O)C(C)C)[C@@H](C)O [Example 57] (H-K([AEEA-γGlu-C20 diacid])CNTATCATQRLANFLRHSSPNFGAIPSSTPVGSHTY-NH2; disulfide 2-7; N-terminus assumed),"Ratio hCT/hAmylin binding [5, 21]: 133.0; Ratio hCT/hAmylin binding [5, 22]: 133.0; Ratio hCT/hAmylin binding [5, 23]: 133.0"
